Data set [1] concerns DK-PGD2-induced peripheral blood leukocyte influx. In words: Guinea pig IV DK-PGD2-induced peripheral blood leukocyte influx. It is filed as in vivo. Particulars: for EC50 / ED50: Cavia porcellus, Leukocyte, calculated; for EC50: iv, plasma concentration; for ED50: oral. On the procedure:
Example 19: Guinea Pig IV-DKPGD2-Induced Peripheral Blood Leukocyte to Influx
The ability of Compound 2 to inhibit leukocyte migration in vivo was assessed using intravenous injection of 13,14-dihydro-15-keto-prostaglandin D2 (DK-PGD2). Methods were adapted from those detailed Shichijo et al., 2003, Journal of Pharmacology and Experimental Therapeutics, 307:518-525. Male Hartley guinea pigs were immunized with ovalbumin (OVA) on day 0 by intraperitoneal (IP) injection of 1 ml of a 100 μg/ml solution in Imject Alum. They were then used in the DK-PGD2 procedure between days 14 and 21. Subjects were randomly assigned to receive either vehicle (0.5% methyl cellulose, 4 ml/kg, oral (PO)) or one of three to four doses of test compound. Two hours or eighteen hours after dosing, animals were anesthetized with ketamine and challenged with DK-PGD2 (1 mg/kg, IV). Thirty minutes after IV administration, blood was collected via the marginal ear vein into EDTA tubes for cell analysis. 10 μl blood was lysed in 190 μl water followed by a further 20-fold dilution in PBS. A 10 μl fraction was mixed with equal parts trypan blue and loaded on a hemocytometer. Cells were visualized at a magnification of 40× using a LabPro light microscope and totals counted and recorded. Cells are expressed as total cells×10^8 per ml of blood Inhibition of this effect is determined statistically using Graphpad prism.

The nature of data set [2]: Thermodynamic aqueous solubility. It counts as physicochemical. Here is the method:
Example 6: Thermodynamic Aqueous Solubility
Aqueous solubility was determined by suspending sufficient compound in water to give a maximum final concentration of ≧20 mg·ml-1 of the parent free-form of the compound. The suspension was equilibrated at 25° C. for 24 hours then the pH was measured. The suspension was then filtered through a glass fibre C filter into a 96 well plate unless stated otherwise. The filtrate was then diluted by a factor of 101. Quantitation was by HPLC with reference to a standard solution of approximately 0.25 mg·ml^−1 in DMSO. Different volumes of the standard, diluted and undiluted sample solutions were injected. The solubility was calculated using the peak areas determined by integration of the peak found at the same retention time as the principal peak in the standard injection.
Analysis was performed on an Agilent HP1100 series system equipped with a diode array detector and using ChemStation software vB.02.01-SR1.

Data set [3] in a line: Plasma concentrations in guinea pig DK-PGD2 leukocyte influx study. It counts as in vivo. The note with it: Hartley; for concentration at 18.5 h: read-out: concentration of Compound 1 in plasma. On the procedure:
In the 2 hr study, intravenous DK-PGD2 (IV DK-PGD2) increased the number of peripheral blood leukocytes, mainly lymphocytes, which likely reflects recruitment from bone marrow. […] Plasma concentrations taken 2.5 hours following oral Compound 2 were 45 nM±36 and 120 nM±46 in the 10 mg/kg and 30 mg/kg dose groups, respectively.
In the 18 hr guinea pig study, a significant increase in peripheral blood leukocytes was also observed following IV DK-PGD2 challenge. […] The concentration of Compound 1 in plasma recovered 18.5 hours following oral dose was 4 nM±7, 21 nM±19 and 17 nM±10 in the 10 mg/kg, 30 mg/kg and 100 mg/kg dose groups, respectively.

Data set [4] can be described thus: Plasma exposure in satellite group of mouse allergic rhinitis model. It counts as in vivo. Particulars: Compound 2 10 mg/kg PO. Here is the method:
Compound 2 was evaluated in a mouse model of ovalbumin (OVA)-induced allergic rhinitis in which nasal ovalbumin challenges to OVA-primed mice elicits an increase in sneezing and nasal rubs (Methods were adapted from those detailed in Nakaya, M., et al. 2006, Laboratory Investigation, 86:917-926). OVA-primed mice received an intranasal challenge of OVA daily for 5 consecutive days. The number of sneezes and nasal rubs were counted over an 8 minute recording session on days 1, 3 and 5 immediately following OVA challenge. OVA caused a significant increase in both sneezing behavior and nasal rubs when compared to intranasal phosphate buffered saline (PBS) challenge. […] The plasma exposure for Compound 1 measured in a satellite group was 1360 nM, 460 nM, 210 nM and 90 nM for time points 1, 2, 4, and 6 hr post-dose, respectively.

For a further data set, the target named is DP2 receptor (Homo sapiens (Human), UniProt Q9Y5Y4). Description: Phase I single ascending dose study, ex vivo PGD2-induced blood eosinophil shape change (ESC). It is filed as in vivo. Particulars: humans. On the procedure: Procedure Evaluate Effects of Compound 1 on Ex Vivo PGD2-Induced Blood Eosinophil Shape Change (ESC)
Pre dose blood is drawn and challenged with PGD2 to determine baseline shape change as described above in Example 17. At varying times after dosing blood is drawn for both pharmacokinetic analyses of drug concentration in blood, and also for PGD2 challenge and eosinophil shape change determination. The extent of receptor blockage is determined from the relationship between drug blood concentration and percentage inhibition of eosinophil shape change.

Where [5] appears, read: water, listed as Amorphous Compound 2, sodium salt.

Where a name gives a salt, the structure may show the parent alone. Read-outs that look alike come from different tables or passages of the source.

Sequence of DP2 receptor (Q9Y5Y4 whole entry): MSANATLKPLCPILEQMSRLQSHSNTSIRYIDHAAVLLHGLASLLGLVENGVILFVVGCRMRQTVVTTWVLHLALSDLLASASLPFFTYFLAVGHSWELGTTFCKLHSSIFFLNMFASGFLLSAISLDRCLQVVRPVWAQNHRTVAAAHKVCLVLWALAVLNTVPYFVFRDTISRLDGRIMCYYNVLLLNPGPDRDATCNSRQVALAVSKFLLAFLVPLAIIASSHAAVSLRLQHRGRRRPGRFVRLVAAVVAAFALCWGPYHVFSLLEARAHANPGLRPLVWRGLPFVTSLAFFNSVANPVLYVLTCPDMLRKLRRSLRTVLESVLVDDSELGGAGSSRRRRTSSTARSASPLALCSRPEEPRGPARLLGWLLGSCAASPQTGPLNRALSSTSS

For the molecule `COc1ccc(CC(=O)O)cc1Oc1ccc(NC(=O)C(C)(C)C)cc1CSC(C)(C)C` [Compound 1, 2-(3-(2-((tert-butylthio)methyl)-4-(2,2-dimethyl-propionylamino)phenoxy)-4-methoxyphenyl)acetic acid], the EC50 in data set [1] (18 hr study, read-out: 18-hr EC50, inhibition of IV-DK-PGD2-induced leukocyte influx) was 18 nM. For the same molecule, the “Solubility mg/ml Free Base equivalent” value turned out to be 0.013 mg/mL in data set [2] (test solvent pH 1.5, 25° C., 24 hours, listed as Compound 1 Pattern 1); 0.0059 mg/mL in data set [2] (test solvent pH 4.0, 25° C., 24 hours, listed as Compound 1 Pattern 1); 0.39 mg/mL in data set [2] (test solvent pH 6.5, 25° C., 24 hours, listed as Compound 1 Pattern 1); 7.6 mg/mL in data set [2] (test solvent pH 7.4, 25° C., 24 hours, listed as Compound 1 Pattern 1). In addition, in data set [2] (test solvent pH 5.0, 25 °C, pH 5, aqueous buffer, thermodynamic from solid, test solvent pH 5.0, 25° C., 24 hours, read-out: Solubility mg/ml Free Base equivalent), the solubility at 24 h came to 0.027 mg/mL. Besides, the “Thermodynamic solubility in water” value in data set [2] (water, listed as Pattern 1 of Compound 1) was determined as 6200 µg/mL. Further, the concentration at 18.5 h in data set [3] (18.5 hours after oral 10 mg/kg) worked out at 4 nM; in data set [3] (18.5 hours after oral 30 mg/kg), 21 nM; in data set [3] (18.5 hours after oral 100 mg/kg), 17 nM. The concentration at 1 h in data set [4] (1 hr post-dose) amounted to 1360 nM. In addition, the concentration at 2 h in data set [4] (2 hr post-dose, read-out: plasma exposure for Compound 1) is 460 nM. Besides, the concentration at 4 h in data set [4] (4 hr post-dose, read-out: plasma exposure for Compound 1) is 210 nM. Further, the concentration at 6 h in data set [4] (6 hr post-dose, read-out: plasma exposure for Compound 1) was 90 nM.

As to `COc1ccc(CC(=O)O)cc1Oc1ccc(NC(=O)C(C)(C)C)cc1CSC(C)(C)C` [Compound 2, 2-(3-(2-((tert-butylthio)methyl)-4-(2,2-dimethyl-propionylamino)phenoxy)-4-methoxyphenyl)acetic acid, sodium salt], the “24 hr PD response (inhibition of ex vivo ESC)” value on DP2 receptor (500 mg single dose, 24 hr) is on record as around 50%. In addition, the “pharmacodynamic dose response (ex vivo ESC inhibition)” value on DP2 receptor (>150 mg, at 0.5, 2 hr and 8 hr) is given as “maximal inhibition achieved”. Further, the “% inhibition of DK-PGD2-induced peripheral blood leukocyte increase” value is given as 19 (±23) % in data set [1] (2 hr study, 10 mg/kg oral) and 107 (±9) % in data set [1] (2 hr study, 30 mg/kg oral). In addition, the “% inhibition of peripheral blood leukocyte numbers” value in data set [1] (18 hr study, 10 mg/kg oral) is 29 (±14) %; in data set [1] (18 hr study, 30 mg/kg oral) it was 50 (±8) %; in data set [1] (18 hr study, 100 mg/kg oral), 77 (±12) %. Besides, the EC50 in data set [1] (2 hr study, read-out: EC50 associated with ED50) was 50 nM. For the same molecule, the values for the median effective dose (ED50) in data set [1] (2 hr study) and in data set [1] (18 hr study) were 11 mg/kg and 63 mg/kg, respectively. Besides, the “Solubility mg/ml Free Base equivalent” value in data set [2] (test solvent pH 1.5, 25° C., 24 hours, listed as Compound 2 Pattern 1, sodium salt) is 0.0058 mg/mL; in data set [2] (test solvent pH 4.0, 25° C., 24 hours, listed as Compound 2 Pattern 1, sodium salt), 0.0023 mg/mL; in data set [2] (test solvent pH 5.0, 25° C., 24 hours, listed as Compound 2 Pattern 1, sodium salt) it was 0.04 mg/mL; in data set [2] (test solvent pH 6.5, 25° C., 24 hours, listed as Compound 2 Pattern 1, sodium salt) it was 4.1 mg/mL; in data set [2] (test solvent pH 7.4, 25° C., 24 hours, listed as Compound 2 Pattern 1, sodium salt), 18.0 mg/mL. Besides, the “pH of Unfiltered Saturated solution” value in data set [2] (test solvent pH 1.5, listed as Compound 2 Pattern 1, sodium salt) is listed as 2.73; in data set [2] (test solvent pH 4.0, listed as Compound 2 Pattern 1, sodium salt), 4.67; in data set [2] (test solvent pH 5.0, listed as Compound 2 Pattern 1, sodium salt), 5.88; in data set [2] (test solvent pH 6.5, listed as Compound 2 Pattern 1, sodium salt) it was 7.06; in data set [2] (test solvent pH 7.4, listed as Compound 2 Pattern 1, sodium salt), 7.97. For the same molecule, in data set [2] (setting [5]), the “Thermodynamic solubility in water” value was above 20000 µg/mL. Moreover, the “pH of unfiltered solution” value in data set [2] (setting [5]) turned out to be 8.18. Further, the concentration at 2.5 h is 45 nM in data set [3] (2.5 hours after oral 10 mg/kg) and 120 nM in data set [3] (2.5 hours after oral 30 mg/kg).

A word on the EC50: it is the concentration needed to bring the measured effect to its halfway point. By ED50 is commonly meant the dose that gives a 50% effect, or the effect in half of the subjects.

The record behind these values is patent US9688624B2, “DP2 antagonist and uses thereof” (Brickell Biotech, Inc., priority 2010, dated 2017).
